Data taken from paper PMC7170309, “Imidazopyridine-fused [1,3]diazepinones: modulations of positions 2 to 4 and their impacts on the anti-melanoma activity” (Journal of Enzyme Inhibition and Medicinal Chemistry, 2020).

What was measured:
HL-60(TB) = experiment: NCI-60 SRB assay, HL-60(TB) (Leukemia); assay type: cell-based, human; conditions: 10 µM, 48 h
Description: (§1) Primary anticancer assay was performed on a panel of 60 human cancer cell lines derived from nine neoplastic diseases, in accordance with the protocol of the Drug Evaluation Branch, National Cancer Institute, Bethesda, Maryland, USA[22]. Cells were incubated with tested compounds at 10 µM for 48 h. The growth percentage was evaluated spectrophotometrically using a protein binding dye, SRB. Results for each tested compound were reported as the percent of growth of treated cells when compared to untreated control cells.
(§2) To better compare the activity profile of these two series of compounds, compounds 5 and 8 were selected and then evaluated towards a panel of sixty cancer cell lines corresponding to nine different cancer types, i.e. leukaemia, melanoma, as well as lung, colon, central nervous system, ovarian, renal, prostate and breast cancers (NCI evaluation). Indeed, it is now well established that the growth inhibitory patterns of anticancer drugs against the NCI-60 cell line panel correlated well with their modes of action. For example, compounds that bind to tubulin have similar growth inhibition patterns regardless of which site on tubulin they bind[30]. […] Compounds were tested using the sulforhodamine B (SRB) assay that provides a direct cell density index. The amount of dye incorporated by the cells increases with the increase of the total protein biomass. Cells were incubated for 48 h with compounds at 10 µM concentration, then cell growth was evaluated spectrophotometrically and presented as the percent of untreated control cells. Values of the most sensitive cell lines were compared to those obtained with JMV5038 (Figure 4, for all data see SI).

NCI-H322M = experiment: NCI-60 SRB assay, NCI-H322M (NSCLC); assay type: cell-based, human; conditions: 10 µM, 48 h
Description: as §1, §2

UACC-257 = experiment: NCI-60 SRB assay, UACC-257 (Melanoma); assay type: cell-based, human; conditions: 10 µM, 48 h
Description: as §1, §2

786-0 = experiment: NCI-60 SRB assay, 786-0 (Renal Cancer); assay type: cell-based, human; conditions: 10 µM, 48 h
Description: as §1, §2

PC-3 = experiment: NCI-60 SRB assay, PC-3 (Prostate Cancer); assay type: cell-based, human; conditions: 10 µM, 48 h
Description: as §1, §2

UO-31 = experiment: NCI-60 SRB assay, UO-31 (Renal Cancer); assay type: cell-based, human; conditions: 10 µM, 48 h
Description: as §1, §2

ACHN = experiment: NCI-60 SRB assay, ACHN (Renal Cancer); assay type: cell-based, human; conditions: 10 µM, 48 h
Description: as §1, §2

[1] = test system: NIH-3T3 non-cancerous cells; experiment: Neutral red uptake (NRU) toxicity assay, NIH-3T3; assay type: cell-based; conditions: Mus musculus, NIH3T3, 72 h, non-cancerous mouse fibroblasts
MDA-MB-231 = experiment: NCI-60 SRB assay, MDA-MB-231 (Breast Cancer); assay type: cell-based, human; conditions: 10 µM, 48 h;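 for Mean G% - G%: mean growth across the NCI-60 panel minus this line's growth with positive meaning more sensitive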
Description: as §1, §2

NCI-H226 = experiment: NCI-60 SRB assay, NCI-H226 (NSCLC); assay type: cell-based, human; conditions: 10 µM, 48 h
Description: as §1, §2

SK-MEL-2 = experiment: NCI-60 SRB assay, SK-MEL-2 (Melanoma); assay type: cell-based, human; conditions: 10 µM, 48 h
Description: as §1, §2

KM12 = experiment: NCI-60 SRB assay, KM12 (Colon Cancer); assay type: cell-based, human; conditions: 10 µM, 48 h
Description: as §1, §2

CAKI-1 = experiment: NCI-60 SRB assay, CAKI-1 (Renal Cancer); assay type: cell-based, human; conditions: 10 µM, 48 h
Description: as §1, §2

MALME-3M = experiment: NCI-60 SRB assay, MALME-3M (Melanoma); assay type: cell-based, human; conditions: 10 µM, 48 h
Description: as §1, §2

HOP-62 = experiment: NCI-60 SRB assay, HOP-62 (NSCLC); assay type: cell-based, human; conditions: 10 µM, 48 h;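 for Mean G% - G%: mean growth across the NCI-60 panel minus this line's growth with positive meaning more sensitive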
Description: as §1, §2

NCI/ADR-RES = experiment: NCI-60 SRB assay, NCI/ADR-RES (Ovarian Cancer); assay type: cell-based, human; conditions: 10 µM, 48 h;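 for Mean G% - G%: mean growth across the NCI-60 panel minus this line's growth with positive meaning more sensitive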
Description: as §1, §2

OVCAR-8 = experiment: NCI-60 SRB assay, OVCAR-8 (Ovarian Cancer); assay type: cell-based, human; conditions: 10 µM, 48 h;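 for Mean G% - G%: mean growth across the NCI-60 panel minus this line's growth with positive meaning more sensitive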
Description: as §1, §2

RPMI-8226 = experiment: NCI-60 SRB assay, RPMI-8226 (Leukemia); assay type: cell-based, human; conditions: 10 µM, 48 h
Description: as §1, §2

SNB-19 = experiment: NCI-60 SRB assay, SNB-19 (CNS Cancer); assay type: cell-based, human; conditions: 10 µM, 48 h
Description: as §1, §2

In the case of `C[C@@H]1NC(c2csc3ccccc23)=Nc2nc3ccccn3c2C1=O` [Compound 8, (4S)-4-methyl-2-benzothiophen-3-yl-3,4-dihydro-5H-pyrido[1’,2’:1,2]imidazo[4,5-d][1,3]diazepin-5-one], the “Mean G% - G%” value (HL-60(TB)) is reported as 6,00%, the G% (HL-60(TB); growth vs untreated control) is reported as 68,87% and the “Mean G% - G%” value (NCI-H322M) is reported as 10,06%. For the same molecule, the G% (NCI-H322M; growth vs untreated control) was 64,81%, the “Mean G% - G%” value (UACC-257) was -23,68% and the G% (UACC-257; growth vs untreated control) was 98,55%. The “Mean G% - G%” value (786-0) was -14,72%, the G% (786-0; growth vs untreated control) was 89,59% and the “Mean G% - G%” value (PC-3) was -2,69%. The G% (PC-3; growth vs untreated control) was 77,56%, the “Mean G% - G%” value (UO-31) was 22,87% and the G% (UO-31; growth vs untreated control) was 52,00%. For the same molecule, the “Mean G% - G%” value (ACHN) was -4,72%, the G% (ACHN; growth vs untreated control) was 79,59% and the IC50 [1] was over 40 µM. The “Mean G% - G%” value (MDA-MB-231) was 6,94%, the G% (MDA-MB-231; growth vs untreated control) was 67,93% and the “Mean G% - G%” value (NCI-H226) was 2,63%. The G% (NCI-H226; growth vs untreated control) was 72,24%, the “Mean G% - G%” value (SK-MEL-2) was -20,08% and the G% (SK-MEL-2; growth vs untreated control) was 94,95%. For the same molecule, the “Mean G% - G%” value (KM12) was 4,90%, the G% (KM12; growth vs untreated control) was 69,97% and the “Mean G% - G%” value (CAKI-1) was 39,76%. For the same molecule, the G% (CAKI-1; growth vs untreated control) was 35,11%, the “Mean G% - G%” value (MALME-3M) was -0,21% and the G% (MALME-3M; growth vs untreated control) was 75,08%. The “Mean G% - G%” value (HOP-62) was 23,74%, the G% (HOP-62; growth vs untreated control) was 51,13% and the “Mean G% - G%” value (NCI/ADR-RES) was -2,84%. The G% (NCI/ADR-RES; growth vs untreated control) was 77,71%, the “Mean G% - G%” value (OVCAR-8) was -9,67% and the G% (OVCAR-8; growth vs untreated control) was 84,54%. The “Mean G% - G%” value (RPMI-8226) was 24,51%, the G% (RPMI-8226; growth vs untreated control) was 50,36% and the “Mean G% - G%” value (SNB-19) was -4,95%. For the same molecule, the G% (SNB-19; growth vs untreated control) was 79,82%.
